In US20240067693A1, “POLYPEPTIDES AND USES THEREOF” (MEDIMMUNE LIMITED, priority 2020, published 2024):
Numbered stars: 1 amine (or outer) side, 2 acyl side, 3 side chain; on linkers, the order of the positions; unused ones are H or OH. Bridge positions count the residues as written; N and C are the ends. Square brackets hold non-standard residues; d marks the D form. Side chains are listed from the residue outwards. Peptide text beside a SMILES is read from it. * marks the point of attachment. C18 diacid = O=C(O)CCCCCCCCCCCCCCCCC(=O)*; γGlu = O=C(O)[C@H](CCC(=O)[*:2])N[*:1]; Aib = CC(C)(N)C(=O)O

How the values were obtained:
[1] = target: T1, human amylin receptor (calcitonin receptor co-expressed with receptor activity modifying protein, RAMP3) (hAMYR3) (Homo sapiens, UniProt O60896+P30988); assay: cAMP production in 1321N1 cells with stable recombinant expression of human amylin receptor (hAMYR3); assay type: cell-based; settings: for Ratio (selectivity hAMYR vs hCTR, ratio of EC50 values at the two receptors): EC50 hCTR / EC50 hAMYR3; for EC50: cAMP, 1321N1 cells, assay buffer with 0.1% BSA, read-out: EC50 (pM) hAMYR3
T1 construct: expressed in transfected cells
T1 sequence (P30988 25-474): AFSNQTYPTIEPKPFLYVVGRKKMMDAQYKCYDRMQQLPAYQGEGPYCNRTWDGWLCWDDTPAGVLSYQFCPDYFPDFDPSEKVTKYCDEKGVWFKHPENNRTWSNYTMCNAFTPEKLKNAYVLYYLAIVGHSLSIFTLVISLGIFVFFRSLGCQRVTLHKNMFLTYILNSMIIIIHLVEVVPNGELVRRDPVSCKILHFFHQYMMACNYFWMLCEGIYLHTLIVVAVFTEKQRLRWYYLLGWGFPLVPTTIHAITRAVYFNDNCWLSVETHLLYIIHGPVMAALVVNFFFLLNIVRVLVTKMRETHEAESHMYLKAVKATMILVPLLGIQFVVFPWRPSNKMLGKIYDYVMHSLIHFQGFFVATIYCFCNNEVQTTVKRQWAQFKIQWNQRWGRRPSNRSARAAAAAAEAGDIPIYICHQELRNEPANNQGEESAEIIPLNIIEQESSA
T1 sequence (O60896 24-148 partner): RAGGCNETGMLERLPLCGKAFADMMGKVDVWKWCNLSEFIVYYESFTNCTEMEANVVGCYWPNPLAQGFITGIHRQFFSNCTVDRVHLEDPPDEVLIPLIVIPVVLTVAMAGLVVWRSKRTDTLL
Method in brief: (§1)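 Thawed cells in HBSS/0.1% BSA/25 mM HEPES pH 7.4 with 0.5 mM IBMX were incubated with peptides 30 min at room temperature; cAMP read by HTRF. EC50 from 4-parameter fit of % activation relative to maximal amylin or calcitonin effect.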

[2] = target: T2, human calcitonin receptor (hCTR) (Homo sapiens, UniProt P30988); assay: cAMP production in 1321N1 cells with stable recombinant expression of human calcitonin receptor (hCTR); assay type: cell-based; settings: cAMP, 1321N1 cells, assay buffer with 0.1% BSA; read-out: EC50 (pM) hCTR
T2 construct: expressed in transfected cells
T2 sequence (P30988 25-474): T1 sequence (P30988 25-474)
Method in brief: as §1

[3] = target: T3, rat amylin receptor (calcitonin receptor co-expressed with receptor activity modifying protein, RAMP3) (Rat AMYR3) (Rattus norvegicus, UniProt P32214+Q9JJ73); assay: cAMP production in HEK cells with stable recombinant expression of rat amylin receptor (Rat AMYR3); assay type: cell-based; settings: assay buffer with 0.1% BSA
T3 construct: expressed in transfected cells
T3 sequence (P32214 25-516): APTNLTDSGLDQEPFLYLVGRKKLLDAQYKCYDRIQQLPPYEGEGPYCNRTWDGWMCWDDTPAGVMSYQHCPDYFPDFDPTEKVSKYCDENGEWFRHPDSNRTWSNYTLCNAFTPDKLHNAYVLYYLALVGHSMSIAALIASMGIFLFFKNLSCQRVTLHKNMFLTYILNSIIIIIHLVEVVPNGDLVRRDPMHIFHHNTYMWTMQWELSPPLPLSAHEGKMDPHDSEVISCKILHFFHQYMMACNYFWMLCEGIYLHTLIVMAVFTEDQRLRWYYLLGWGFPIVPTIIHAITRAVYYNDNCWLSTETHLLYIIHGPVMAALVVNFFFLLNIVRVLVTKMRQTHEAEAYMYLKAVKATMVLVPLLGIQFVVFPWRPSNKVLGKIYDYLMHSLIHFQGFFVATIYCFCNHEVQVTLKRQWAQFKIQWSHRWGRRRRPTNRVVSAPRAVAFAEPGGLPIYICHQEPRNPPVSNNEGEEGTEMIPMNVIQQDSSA
T3 sequence (Q9JJ73 23-147 partner): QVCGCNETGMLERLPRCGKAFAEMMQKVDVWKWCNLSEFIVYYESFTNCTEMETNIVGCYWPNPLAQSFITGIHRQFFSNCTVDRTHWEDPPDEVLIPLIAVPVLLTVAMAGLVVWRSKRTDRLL
Description: (§2) The functional activities of lipidated pramlintide analogue peptides, such as cAMP production, were tested in 1321N1 cell line with stable recombinant expression of human calcitonin receptor (hCTR) or human amylin receptor (calcitonin receptor co-expressed with receptor activity modifying protein, RAMP3) (hAMYR3) or HEK cells with stable recombinant expression of rat calcitonin receptor (rat CTR) or rat amylin receptor (calcitonin receptor co-expressed with receptor activity modifying protein, RAMP3) (Rat AMYR3).
(§3) Cryopreserved cell stock was thawed rapidly in a water-bath, suspended in assay buffer (0.1% BSA (Sigma # A3059) in HBSS (Sigma # H8264) with 25 mM HEPES, pH 7.4 and containing 0.5 mM IB MX (Sigma# 17018)) and spun at 240×g for 5 minutes. Cells were re-suspended in assay buffer at a batch-dependent optimized concentration (e.g. hCTR cells at 0.125×10^5 cells/mL, hAMYR3 cells at 0.125×10^5 cells/mL, rat CTR cells at 1x10^5 cells/mL, rat AMYR3 at 2×10^5 cells/mL).
(§4) The test peptide stock was prepared in DMSO and diluted in assay buffer to reach stated concentrations and transferred in duplicates into a 384-black shallow well microtitre assay plate (Corning # 3676). Cells were added to the assay plate, incubated at room temperature for 30 minutes and the cAMP level measured using cAMP dynamic 2 HTRF kit (Cisbio, Cat # 62AM4PEJ), following the two step protocol as per manufacturer's recommendations. The plates were read on an Envision (Perkin Elmer) using excitation wavelength of 320 nm and emission wavelengths of 620nm & 665 nm.
(§5) Data was transformed to % Delta F as described in the manufacturer's guidelines and analyzed as percent activation of maximal amylin or calcitonin effect by 4-parameter logistic fit to determine EC50 values. The selectivity of a peptide to hAMYR vs hCTR is defined as a ratio of EC50 values at the two receptors.

[4] = target: T4, rat calcitonin receptor (rat CTR) (Rattus norvegicus, UniProt P32214); assay: cAMP production in HEK cells with stable recombinant expression of rat calcitonin receptor (rat CTR); assay type: cell-based; settings: assay buffer with 0.1% BSA
T4 construct: expressed in transfected cells
T4 sequence (P32214 25-516): T3 sequence (P32214 25-516)
Description: as §2, §3, §4, §5

lean rats = assay: Rat acute food intake study; assay type: in vivo; settings: lean male Sprague Dawley rats, 20 nmol/kg subcutaneously
Description: Male Sprague Dawley rats were obtained from Taconic Denmark, ApS at approximately 7 weeks of age. Rats were implanted with a microchip for identification, housed 4/cage with enrichment, free access to food and water, and allowed one week acclimatisation while non-invasive characterization was performed. Rats were on a 12:12 light:dark cycle that switches at 1pm:1am. Food intake was monitored via the HM2 system (Lafayette Instrument) that allows for monitoring in a home cage. As each rat enters an access tunnel to feed, an IR beam is broken, and the implanted microchip is read. Resulting changes to food weight is then assigned to the specific animal. Social order has shown no impact to overall feeding patterns and amounts.
Rats were sorted into groups based on Day -1 body weight and 24-hour accumulated food intake (n=7 per group). On Day 0 rats were weighed, then fasted for 6 hours. Thirty (30) minutes prior to the reintroduction of food, rats were dosed subcutaneously (5 mL/kg) with 20 nmol/kg of test compound or 60 nmol/kg peptide 1 (pramlintide) diluted in an appropriate vehicle, after which food was returned, and lights went out. Automated food intake was monitored for the following 3 days, and rats were weighed once per day.
Food intake per rat was batched into 1-hour intervals and integrated into Gubra's GubraView data management system. Discrete food intake data was exported into MS Excel from which cumulative food intake data was generated. Cumulative food intake data was then transposed into GraphPad Prism (v8.0.1) for analysis of dark period feeding

[5] = Pharmacokinetic determination via IV and SC administration in Sprague Dawley rats; settings: male, rat, plasma, 20 nmol/kg
Description: (§6) PK studies were performed to determine the half-life (T1/2) of test peptides. T1/2 describes the time taken for the maximum plasma concentration (Cmax) of a test substance to halve its steady-state concentration when in circulation.
(§7) Male SD rats were purchased from Si Bei Fu Laboratory Animal Technology Co. Ltd (China). The animals were 6-8 weeks old with body weights of 200-300 g on the dosing date. The animals were housed in a 12-hour light/12-hour dark cycle environment and were fasted overnight before dosing. The body weight of the animals were recorded before dosing, 24 h and 48 h post dosing . Animals had free access to food and drinks, and the food consumption was quantified every day.
(§8) Test articles were administered at 20 nmol/kg. Blood samples were collected from each animal via Jugular vein.
(§9) The blood samples were transferred into eppendorf low binding tube containing K2 EDTA. Above 0.150 mL blood were collected at each time point. Blood samples were centrifuged at 4,000 g for 5 minutes at 4° C. to obtain plasma. The plasma samples were stored frozen at −75±15° C. until analysis.
(§10) Concentrations of the test articles in the plasma samples were analyzed using a LC-MS/MS method. Data acquisition was performed by LabSolution version 5.89 software (Shimadzu, Kyoto, Japan). Data statistics were performed using Excel 97-2003 software. The pharmacokinetic parameters of test articles were calculated using a non-compartmental approach with Phoenix™ VVinNonlin® 6.1.
(§11) The following pharmacokinetic parameters were calculated, whenever possible from the plasma concentration versus time data: • IV administration: T1/2, C0, AUClast, AUCinf, MRTinf, Cl, Vss, Number of Points for Regression. • SC administration: Tmax, Cmax, AUClast, AUCinf, MRTinf, F, Number of Points for Regression.

in vivo = settings: male, Sprague-Dawley, rat, 20 nmol/kg
Description: as §6, §7, §8, §9, §10, §11

Ratio (selectivity hAMYR vs hCTR, ratio of EC50 values at the two receptors) [1]	EC50 [1]	EC50 [2]	EC50 [3]	EC50 [4]	half-life ([5]; iv)	half-life ([5]; sc)	half-life (in vivo; iv)	half-life (in vivo; sc)	Compound	Cummulative food intake (% vehicle treated intake) At 12 h (lean rats)	Cummulative food intake (% vehicle treated intake) At 24 h (lean rats)	Cummulative food intake (% vehicle treated intake) At 48 h (lean rats)
9.2	656 pM	6050 pM	19.5 pM	1220 pM	10.6 h	12.9 h	–	–	CC[C@H](C)[C@H](NC(=O)[C@@H]1CCCN1C(=O)CNC(=O)[C@H](Cc1ccccc1)NC(=O)[C@H](CC(N)=O)NC(=O)[C@H](CC(N)=O)NC(=O)[C@H](CO)NC(=O)[C@H](CO)NC(=O)[C@H](Cc1c[nH]cn1)NC(=O)C(C)(C)NC(=O)[C@H](CC(C)C)NC(=O)[C@H](Cc1ccccc1)NC(=O)[C@H](CC(N)=O)NC(=O)[C@H](C)NC(=O)[C@H](CC(C)C)NC(=O)[C@H](CCCNC(=N)N)NC(=O)[C@H](CCC(N)=O)NC(=O)[C@@H](NC(=O)[C@H](C)NC(=O)[C@@H]1CSSC[C@H](NC(=O)[C@H](CCCCN)NC(=O)[C@@H](N)CCCCNC(=O)CC[C@H](NC(=O)CCCCCCCCCCCCCCCCC(=O)O)C(=O)O)C(=O)N[C@@H](CC(N)=O)C(=O)N[C@@H]([C@@H](C)O)C(=O)N[C@@H](C)C(=O)N[C@@H]([C@@H](C)O)C(=O)N1)[C@@H](C)O)C(=O)N[C@@H](CC(C)C)C(=O)N1CCC[C@H]1C(=O)N1CCC[C@H]1C(=O)N[C@H](C(=O)N[C@@H](CCC(=O)O)C(=O)N[C@H](C(=O)NCC(=O)N[C@@H](CO)C(=O)N[C@@H](CC(N)=O)C(=O)N[C@H](C(=O)N[C@@H](Cc1ccc(O)cc1)C(N)=O)[C@@H](C)O)C(C)C)[C@@H](C)O [Peptide 140] (H-K([γGlu-C18 diacid])KCNTATCATQRLANFL[Aib]HSSNNFGPILPPTEVGSNTY-NH2; disulfide 3-8; N-terminus assumed)	62.4 % vehicle treated intake	54.4 % vehicle treated intake	56.5 % vehicle treated intake
7	178 pM	1180 pM	8.2 pM	925 pM	–	–	8.3 h	10.1 h	CC[C@H](C)[C@H](NC(=O)[C@@H]1CCCN1C(=O)CNC(=O)[C@H](Cc1ccccc1)NC(=O)[C@H](CC(N)=O)NC(=O)C(C)(C)NC(=O)[C@H](CO)NC(=O)[C@H](CO)NC(=O)[C@H](Cc1c[nH]cn1)NC(=O)[C@@H](NC(=O)[C@H](CC(C)C)NC(=O)[C@H](Cc1ccccc1)NC(=O)[C@H](CC(N)=O)NC(=O)[C@H](C)NC(=O)[C@H](CC(C)C)NC(=O)[C@H](CCCNC(=N)N)NC(=O)[C@H](CCC(N)=O)NC(=O)[C@@H](NC(=O)[C@H](C)NC(=O)[C@@H]1CSSC[C@H](NC(=O)[C@H](CCCCN)NC(=O)[C@@H](N)CCCCNC(=O)CC[C@H](NC(=O)CCCCCCCCCCCCCCCCC(=O)O)C(=O)O)C(=O)N[C@@H](CC(N)=O)C(=O)N[C@@H]([C@@H](C)O)C(=O)N[C@@H](C)C(=O)N[C@@H]([C@@H](C)O)C(=O)N1)[C@@H](C)O)C(C)C)C(=O)N[C@@H](CC(C)C)C(=O)N1CCC[C@H]1C(=O)N1CCC[C@H]1C(=O)N[C@H](C(=O)N[C@@H](CCC(=O)O)C(=O)N[C@H](C(=O)NCC(=O)N[C@@H](CO)C(=O)N[C@@H](CC(N)=O)C(=O)N[C@H](C(=O)N[C@@H](Cc1ccc(O)cc1)C(N)=O)[C@@H](C)O)C(C)C)[C@@H](C)O [Peptide 41, K(γE-C18diacid)K[CNTATC]ATQRLANFLVHSS(Aib)NFGPILPPTEVGSNTY-amide] (H-K([γGlu-C18 diacid])KCNTATCATQRLANFLVHSS[Aib]NFGPILPPTEVGSNTY-NH2; disulfide 3-8; N-terminus assumed)	44.6 % vehicle treated intake	38.5 % vehicle treated intake	58.8 % vehicle treated intake
